Experimental data from patent US20260256734A1, “COMPOSITIONS COMPRISING SILYMARIN (OR) CURCUMIN AND METFORMIN, METHODS AND APPLICATIONS THEREOF” (ACUBIOSYS PRIVATE LIMITED, priority 2022, published 2026).

Key:
[1] = test system: inflammatory markers (IL-17, IL-1β and IL-23) in IMQ-induced differentiated HaCaT cells; assay: In vitro IMQ-induced psoriatic model, inflammatory markers in conditioned media; assay type: cell-based; conditions: IMQ 100 μM, formulation in culture media 48 hr, mean ± S.D.
Description: This study was designed to investigate the effect of a Metf+SMR and Metf+SMR hydro-gel formulation on an IMQ-induced psoriasis-like mouse model. The composition of the hydrogel formulation prepared by using 1.5% crosslinked polyacrylic acid polymer and 1.5% triethanolamine is provided. In doing so, the Applicant expected to obtain supportive evidence of a role for the formulation in treating psoriasis. For that the Applicant has developed hydrogel-based formulations: 1. Metformin and 2. Metformin-silybin (Metf+SMR) 3. Metformin-curcumin (Metf+CMR) and studied invitro cell toxicity in A431 cells by MTT assay and invitro IMQ-induced psoriatic modal using HaCaT cells and determined the inflammatory markers (IL-1β, IL-23 and IL-17).
To set up an efficient and consistent model for psoriasis in vitro, differentiated HaCaT cells were used to screen our test formulations. HaCaT cells were incubated with 2 mM calcium chloride (CaCl2) to achieve differentiation. Induction of psoriatic-like inflammation was achieved by treating the cells with Imiquimod (IMQ) ([…]). The differentiation and inflammation were confirmed by microscopic images. After inflammation, the cells were treated with different formulation dissolved in culture media and incubated for 48 hr. Clobetasol cream formulation was used as a positive control. After incubation, the conditioned media was collected and used for estimation of inflammatory markers (IL-17, IL-1β and IL-23).

[2] = test system: IMQ-induced psoriasis model in C57BL/6 Mice; assay: IMQ induced psoriatic plaque model, topical hydrogel treatment; assay type: in vivo
Method: Hair was shaved along the back of the anesthetized mouse from shoulder to hip by using electric clippers or depilatory cream. Psoriasis-like lesions were induced by a daily topical application of a commercially available IMQ cream (62.5 mg/day for 5 days D1-D5) on the shaved back skin of C57BL/6 mice.
Animals were randomly assigned to the different groups after reaching a maximum score of 4 with respect to erythema, scale, and thickness. Animals that didn't score 4 were excluded from the experiment. Sham psoriasis animals were administered with Vaseline cream; IMQ animals, were only challenged with imiquimod cream, and IMQ animals were treated with a hydrogel that was topically applied using a nylon mesh for even distribution of the hydrogel, for the whole duration of the experiment.
To score the severity of inflammation of the back skin, an objective scoring system was developed based on the clinical Psoriasis Area and severity index (PASI), except that for the mouse model the affected skin area is not taken into account in the overall score. Erythema, scaling, and thickening was scored independently on a scale from 0 to 4:0, none; 1, slight; 2, moderate; 3, marked; 4, very marked. The level of erythema was scored using a scoring table with red taints. The cumulative score (erythema plus scaling plus thickening) served as a measure of the severity of inflammation (scale 0-12).
• 0: None; 1: Slight; 2: Moderate; 3: Marked; 4: Very Marked.
One of the important characteristic feature of psoriasis and the psoriasis-like skin inflammation was abnormal increase of epidermal skin thickness which was measured by vernier calipers.
The IMQ induced, skin tissue sections (H&E stain) were collected after ten days (D1-D10) from all groups.

`CC(C)Cn1cnc2c(N)nc3ccccc3c21` [IMQ, Imiquimod] was tested, and the “IL-1β (pg/mL), mean concentration” value [1] was 93.63 ± 2.87 pg/mL, the “IL-17 (pg/mL), mean concentration” value [1] was 99.82 ± 3.03 pg/mL and the “IL-23 (pg/mL), mean concentration” value [1] was 98.73 ± 3.27 pg/mL. The “epidermal skin thickness with IMQ only” value ([2]; increased from 1.15 mm, IMQ only applied topically) was 2.22 mm, the “cumulative score on day 5” value ([2]; scale 0-12, day 5, IMQ only) was 12 and the “cumulative score (erythema+scaling+skin thickness) on day 10” value ([2]; scale 0-12, day 10) was 12. For the same molecule, the spleen size (spleen index) ([2]; treatment D6-D10) was 15 mg/g.
